Data set [1] can be described thus: Long-term (6 h) measurement of brain uptake. The following applies: mouse iv 125I-IRA, 6 h circulation; corrected for vascular space and degradation; estimated. The format is in vivo, male CD-1 mice. The protocol: Substances that are enzymatically stable in blood and have slow clearance from the circulation can slowly enter the brain using the extracellular pathways.[63],[64] […] Albumin enters the brain by extracellular pathways,[70] and so we used albumin in two ways: we used ^99mTc-Alb circulating for 10 min to measure vascular space and ^99mTc-Alb circulating for 6 h to measure brain uptake by extracellular pathways. This is similar to the time-differential methodology developed by Poduslo and Curran to measure a substance’s vascular space and its uptake rate.[71] Following anesthetization, the jugular vein and right carotid artery were exposed. Mice were given an iv injection of 0.1% BSA-LR containing 1 × 10^6 cpm of ^125I-IRA or 5 × 10^5 cpm of ^99mTc-Alb, which circulated for 6 h. Mice receiving only the ^125I-IRA were given an injection of 5 × 10^5 cpm of ^99mTc-Alb 10 min prior to the end of the 6 h circulation time to act as a vascular marker. A separate set of mice received an iv injection of both 1 × 10^6 cpm of ^125I-IRA and 5 × 10^5 cpm of ^99mTc-Alb that circulated for 10 min. Following the 10 min or 6 h circulation time points, blood and brain were collected as described above. Thus, we had B/S ratios for ^99mTc-Alb measuring vascular space (10 min circulation time) and B/S ratios for ^99mTc-Alb measuring vascular space plus uptake by the extracellular pathways (6 h circulation time) which could be compared to the B/S ratios for the ^125I-IRAs after 10 min and 6 h of circulation.
Immediately after counting the radioactivity, the blood and brains from the 10 min and 6 h time points were processed as described in Section 2.5 for in vivo stability. For further comparison, data from the 1 h time point were taken from the original pharmacokinetic uptake study. The ^125I-IRA brain % acid precipitation (%AP) was divided by the ^125I-IRA serum %AP at each time point to calculate the %AP B/S ratio. This value was multiplied by the B/S ratio for each ^125I-IRA to correct for degradation over the 10 min, 1 h, or 6 h time periods. […]

For data set [2] the following is noted: IRAs of the earlier study; cited from earlier work. The protocol: The rank order of IRAs showing significant brain uptake 1 h after iv injection with respect to AUCs is similar, but not identical to the rank order of their Ki’s (see Figures 5b and 3b). Less similar is the rank order of IRAs for uptake into brain parenchyma defined as the percent reaching the brain that was in its parenchyma vs. its capillaries. The rank order of parenchymal uptake was specifically DA4-JC (89.7%) = albiglutide (BAF) (89.4%) > DA3-CH (86%) > exenatide (84.2%) > Peptide 17 (73.2%) > lixisenatide (66.8%) > dulaglutide (BAF) (61.8%) > DA5-CH (57.6%) > Peptide 21 (43.6%) > liraglu ...

For data set [3] the following is noted: reported; cited from earlier work.
The conditions of data set [4]: cited from earlier work; for Brain influx within 1 h of iv injection (detection): mouse iv, radiolabeled IRA, earlier study.
Excerpt: The unidirectional blood-to-brain influx rate (Ki) calculated from Figure 2c for all four IRAs tested is graphed with previously calculated Ki’s for other IRAs[50] in Figure 3 by rank.
The conditions of data set [5]: rat, 1 hour after iv, LC-MS/MS, mean, cited from earlier work. The protocol:
This may reflect in part the sensitivity of our method using small amounts of radiolabeled peptides given the results of a recent study on semaglutide. That study used a novel liquid chromatography-tandem mass spectroscopy (LC-MS/MS) method to measure brain levels of semaglutide in adult male Sprague-Dawley rats injected iv 1 hour earlier with about […] of the unlabeled drug per animal. Detectable ...

For the compound `CCCCCCCCCCCCCCCC(=O)N[C@@H](CCC(=O)NCCCC[C@H](NC(=O)[C@H](C)NC(=O)[C@H](C)NC(=O)[C@H](CCC(N)=O)NC(=O)CNC(=O)[C@H](CCC(=O)O)NC(=O)[C@H](CC(C)C)NC(=O)[C@H](Cc1ccc(O)cc1)NC(=O)[C@H](CO)NC(=O)[C@H](CO)NC(=O)[C@@H](NC(=O)[C@H](CC(=O)O)NC(=O)[C@H](CO)NC(=O)[C@@H](NC(=O)[C@H](Cc1ccccc1)NC(=O)[C@@H](NC(=O)CNC(=O)[C@H](CCC(=O)O)NC(=O)[C@H](C)NC(=O)[C@@H](N)Cc1cnc[nH]1)[C@@H](C)O)[C@@H](C)O)C(C)C)C(=O)N[C@@H](CCC(=O)O)C(=O)N[C@@H](Cc1ccccc1)C(=O)N[C@H](C(=O)N[C@@H](C)C(=O)N[C@@H](Cc1c[nH]c2ccccc12)C(=O)N[C@@H](CC(C)C)C(=O)N[C@H](C(=O)N[C@@H](CCCNC(=N)N)C(=O)NCC(=O)N[C@@H](CCCNC(=N)N)C(=O)NCC(=O)O)C(C)C)[C@@H](C)CC)C(=O)O` [Liraglutide], the “Amount present in brain at 6 h (AP corrected delta %Inj/g)” value in data set [1] was 0.03 %Inj/g. In addition, in data set [2], the “Percent reaching the brain that was in parenchyma vs. capillaries” value was 28.7%. Moreover, the “half-lives in human serum” value in data set [3] is 11 to 13 h. In data set [4], the “Brain influx within 1 h of iv injection (detection)” value was “did not detect brain influx”.

Turning to `CC[C@H](C)[C@H](NC(=O)[C@H](Cc1ccccc1)NC(=O)[C@H](CCC(=O)O)NC(=O)[C@H](CCCCNC(=O)COCCOCCNC(=O)COCCOCCNC(=O)CC[C@H](NC(=O)CCCCCCCCCCCCCCCCC(=O)O)C(=O)O)NC(=O)[C@H](C)NC(=O)[C@H](C)NC(=O)[C@H](CCC(N)=O)NC(=O)CNC(=O)[C@H](CCC(=O)O)NC(=O)[C@H](CC(C)C)NC(=O)[C@H](Cc1ccc(O)cc1)NC(=O)[C@H](CO)NC(=O)[C@H](CO)NC(=O)[C@@H](NC(=O)[C@H](CC(=O)O)NC(=O)[C@H](CO)NC(=O)[C@@H](NC(=O)[C@H](Cc1ccccc1)NC(=O)[C@@H](NC(=O)CNC(=O)[C@H](CCC(=O)O)NC(=O)C(C)(C)NC(=O)[C@@H](N)Cc1cnc[nH]1)[C@@H](C)O)[C@@H](C)O)C(C)C)C(=O)N[C@@H](C)C(=O)N[C@@H](Cc1c[nH]c2ccccc12)C(=O)N[C@@H](CC(C)C)C(=O)N[C@H](C(=O)N[C@@H](CCCNC(=N)N)C(=O)NCC(=O)N[C@@H](CCCNC(=N)N)C(=O)NCC(=O)O)C(C)C` [Semaglutide], the “Amount present in brain at 6 h (AP corrected delta %Inj/g)” value in data set [1] is reported as 0.022 %Inj/g. Moreover, in data set [3], the “half-lives in human serum” value is given as ~ 160 h. Besides, the “semaglutide level in the cerebrum” value in data set [5] (cerebrum = cerebral cortex + striatum + amygdala + olfactory bulb) was 7.7 ng/g. Moreover, in data set [5], the “semaglutide level in the cerebellum” value was 12.6 ng/g and the “semaglutide level in the hypothalamus” value is on record as 27 ng/g. Further, the “semaglutide level in the brain as a whole” value in data set [5] (no vascular wash-out) was 12.0 ng/g. In addition, the “Brain influx within 1 h of iv injection (detection)” value in data set [4] was “did not detect brain influx”.

On to “lixisenatide: FDA-approved IRA tested in the earlier study (ref 50)”, for which, in data set [2], the “Percent reaching the brain that was in parenchyma vs. capillaries” value was 66.8%. For the same compound, the “Blood to Brain Unidirectional Influx Rate (Ki)” value in data set [4] (mouse, in vivo, iv) was 0.3271 µL/g/min.

These data come from article PMC11583597, “Brain uptake pharmacokinetics of albiglutide, dulaglutide, tirzepatide, and DA5-CH in the search for new treatments of Alzheimer’s and Parkinson’s diseases” (Tissue Barriers, 2023).
